Data on 6 compounds can be found in US20240317792A1, “CYCLIC DINUCLEOTIDE METAL COMPOUND, AND PREPARATION AND APPLICATION THEREOF” (HANGZHOU XINGAO BIOTECHNOLOGY CO., LTD., priority 2022, published 2024).

The assay relates to mouse breast cancer cell line 4T1. Briefly: Subcutaneously transplanted 4T1 tumor growth inhibition. The assay is classed as in vivo, BALB/c ordinary mice. The note with it: 4T1 in BALB/c mice; 10 mg/kg intraperitoneal once every 2 days for 20 days. From the text:
Experimental animals: BALB/c ordinary mice and C57BL/6 ordinary mice, male, weighing 20-22 grams, 7-8 weeks old, purchased from Shanghai SLAC Laboratory Animal Co. Ltd.
Tumour cell line: mouse colorectal cancer cell line CT26 and mouse breast cancer cell line 4T1, both purchased from Chinese Academy of Sciences Cell Bank.
Establishment and intervention of tumor model mice: cells were subjected to culture and subculture, collected in a logarithmic phase and prepared as 1.0×10^7/mL of cell suspension. 0.2 mL of the cell suspension was injected armpits of forelegs of the mice (with a cell number of 2.0×10^6), and tumor transplantation was successful in about 7 days. Mice with successful tumor transplantation were randomly divided into 7 groups (10 mice in each group). The 7 groups were listed as follows: A: negative control group (injection with normal saline); B: positive control cGAMP group (10 mg/kg of injection); C: [Li2(cGAMP)] group (10 mg/kg of injection); D: [Mg(cGAMP)] group (10 mg/kg of injection); E: [Zn(cGAMP)] group (10 mg/kg of injection); F: [Mn(cGAMP)] group (10 mg/kg of injection); and G: [Fe(cGAMP)] group (10 mg/kg of injection). The mice with successful tumor transplantation were subjected to administration by intraperitoneal injection with a volume of 200 μL per mice once every 2 days for 20 days. After 20 days, the mice with successful tumor transplantation were killed, and the tumor were weighed. A formula of inhibitory rate of tumor was as represented as inhibitory rate of tumor=[1−average tumor weight of experimental group/average tumor weight of the negative control group]×100%.
According to the establishment of tumor model mice, the mouse colorectal cancer cell line CT26 was cultured and transplanted to the BALB/c ordinary mice, and the mouse breast cancer cell line 4T1 was cultured and transplanted to the BALB/c ordinary mice.
Statistical analysis: data was expressed as mean±standard deviation and processed by the SPSS10.0 software. One-way ANOVA was used to detect and compare significance of tumor weights in each group.
Take `Nc1nc2c(ncn2[C@@H]2O[C@@H]3COP(=O)([O-])O[C@H]4[C@@H](O)[C@H](n5cnc6c(N)ncnc65)O[C@@H]4COP(=O)([O-])O[C@@H]2[C@@H]3O)c(=O)[nH]1.[Zn+2]` [[Zn(cGAMP)], zinc cyclic dinucleotide]: the “Average inhibitory rate of tumor” value is 89.1% and the Average tumor weight is recorded as 0.212 ± 0.135 g.
For `Nc1nc2c(ncn2[C@@H]2O[C@@H]3COP(=O)(O)O[C@H]4[C@@H](O)[C@H](n5cnc6c(N)ncnc65)O[C@@H]4COP(=O)(O)O[C@@H]2[C@@H]3O)c(=O)[nH]1` [cGAMP, 2′3′-cGAMP, reference compound] the same measures were 58.8% and 0.761 ± 0.157 g.
As to `Nc1nc2c(ncn2C2OC3COP(=O)([O-])OC4C(COP(=O)([O-])OC2C3O)OC(n2cnc3c(N)ncnc32)C4O)c(=O)[nH]1.[Fe+2]` (stereo not drawn) [[Fe(cGAMP)], ferrous cyclic dinucleotide], the “Average inhibitory rate of tumor” value was determined as 83.6% and the Average tumor weight was 0.301 ± 0.116 g.
For `Nc1nc2c(ncn2[C@@H]2O[C@@H]3COP(=O)([O-])O[C@H]4[C@@H](O)[C@H](n5cnc6c(N)ncnc65)O[C@@H]4COP(=O)([O-])O[C@@H]2[C@@H]3O)c(=O)[nH]1.[Li+].[Li+]` [[Li2(cGAMP)], lithium cyclic dinucleotide], the “Average inhibitory rate of tumor” value is reported as 61.5% and the Average tumor weight stood at 0.712 ± 0.146 g.
For `Nc1nc2c(ncn2C2OC3COP(=O)([O-])OC4C(COP(=O)([O-])OC2C3O)OC(n2cnc3c(N)ncnc32)C4O)c(=O)[nH]1.[Mn+2]` (stereo not drawn) [[Mn(cGAMP)], manganese cyclic dinucleotide] the same measures were 84.9% and 0.287 ± 0.116 g.
For `Nc1nc2c(ncn2[C@@H]2O[C@@H]3COP(=O)([O-])O[C@H]4[C@@H](O)[C@H](n5cnc6c(N)ncnc65)O[C@@H]4COP(=O)([O-])O[C@@H]2[C@@H]3O)c(=O)[nH]1.[Mg+2]` [[Mg(cGAMP)], magnesium cyclic dinucleotide] the same measures were 63.2% and 0.679 ± 0.183 g.
